Experimental data published in patent US11802107B2, “Compounds and methods of use” (Signum Biosciences, Inc., priority 2017, dated 2023).

Columns and labels:
IL-2 = experiment: PHA-induced IL-2 on PBMCs; type: cell-based; settings: Homo sapiens, PBMC, PHA-L 20 μg/mL, 24 hours, ELISA
Description: Cryopreserved human Peripheral Blood Mononuclear cells (PBMCs) from healthy adult donors were obtained from Zen Bio, Inc (Cat No. SER-PBMC-F). Cells were cultured in 96-well plates with lymphocyte media (Cat No. LYMPH-1) and were pre-treated with test materials (≤100 μM) for 2 hours and later co-treated with test materials and PHA-L (Sigma Aldrich, Cat No. 11249738001) at 20 μg/mL and incubated for 24 hours at 37° C. and 5% CO2. After incubation, cell media supernatants were harvested and used to measure cytokine levels (IL-2, IFNγ) using ELISA kits (R&D Systems® #DY202, #DY285). Results were represented as percent of inhibition relative to untreated and PHA-only treated cells. IC50 values were determined by non-linear regression analysis using the four-parameter logistic equation.

IL-13 = experiment: Concanavalin-A-induced IL-13 on PBMCs; type: cell-based; settings: Homo sapiens, PBMC, ConA, 24 hours, ELISA
TSLP = experiment: Calcipotriol-induced TSLP in vivo; settings: CD1 mice, calcipotriol 4 nmol/ear, 24 hours
Excerpt: CD1 mice were topically exposed to 4 nmol/ear Calcipotriol. Five minutes after challenge compounds were applied. Twenty-four hours later, protein samples were extracted from ear skin biopsies and analyzed for TSLP levels by ELISA method. Vehicle for compounds were 60:40 EtOH:H2O (Compound C) or 1:1 EtOH:Acetone (AN2728). Data represents average±S.E. of a representative set from 2 independent experiments (n=6 mice per group). *p value<0.05; **p value≤0.01 by Student t test compared to Calcipotriol+vehicle-only treated animals. ns equals not significant.

IL-8 = experiment: P. acnes-induced IL-8 on human NHEKs; type: cell-based; settings: for IC50: Homo sapiens, NHEK, live P. acnes 10^7 CFU, 24 hours, ELISA, read-out: P. acnes-NHEK IL-8 Protein IC50; for P. acnes-induced IL-8 production: cultured human keratinocytes exposed to P. acnes
Description: Normal human epidermal keratinocytes (NHEKs) from neonatal donors were obtained from Thermo-Fisher (Cat No. C-001-5C). Cells were cultured in 96-well plates for 24 hours with EpiLife media (Cat No. MEPI500CA) supplemented with keratinocytes growth supplement (Cat No. S0015). On Day 2, media was removed and replaced with supplement-depleted medium for 24 hours. On Day 3, media was removed and cells were pre-treated with test materials ([…]) for 2 hours and later co-treated with test materials and live P. acnes (ATCC® 6919TM) at 10^7 CFU for 24 hours at 37° C. and 5% CO2. After incubation, cell media supernatants were harvested and used to measure pro-inflammatory cytokine levels (IL-8) using ELISA kits (BD Biosciences® #555244). Results were represented as percent of inhibition relative to untreated and P. acnes-only treated cells. IC50 values were determined by non-linear regression analysis using the four-parameter logistic equation.

PHA-induced cytokines = PHA-induced cytokines on PBMCs (Example F); type: cell-based, human; settings: PHA-L instead of anti-CD3/CD28 beads
Description: Cryopreserved human Peripheral Blood Mononuclear cells (PBMCs) from healthy adult donors were obtained from Zen Bio, Inc (Cat No. SER-PBMC-F). Cells were cultured in 96-well plates with lymphocyte media (Cat No. LYMPH-1) and were pre-treated with test materials (≤100 μM) for 2 hours and later co-treated with test materials and anti-CD3/CD28 beads (Thermo-Fisher; Cat No. 11131D) at 1:0.4 PBMC:bead ratio for 24 hours at 37° C. and 5% CO2. After incubation, cell media supernatants were harvested and used to measure cytokine levels (IL-4, IL-5, IL-10) using ELISA kits (BD Biosciences® #555194, #555157; R&D Systems® #DY317). Results were represented as percent of inhibition relative to untreated and anti-CD3/CD28 beads-only treated cells. IC50 values were determined by non-linear regression analysis using the four-parameter logistic equation.
By a similar method, but instead of anti-CD3/CD28 beads (Thermo-Fisher; Cat No. 11131D), compounds A, C, T and E were treated with LPS (Sigma Aldrich, Cat. No. LF4321) to measure inhibition of LPS-induced cytokines, and compounds C and T were treated with PHA-L (Sigma Aldrich, Cat No. 11249738001) to measure inhibition of PHA-induced cytokines.

[1] = tested on: subjects with mild to moderate acne; experiment: 8-week clinical study in subjects with mild to moderate acne; type: in vivo; set-up: scale not given here; settings: E 1% w/w, BPO 3% w/w, human
Excerpt: Subjects used the assigned product at home for 8 weeks. Subjects returned post baseline at week 2, 4 and 8. At each visit subjects underwent expert clinical grading and test site photography. […] The severity of acne signs and symptoms on the faces of >18 yo subjects were clinically assessed by IGA scale during an 8-week Study period. In addition, UV light mode was utilized to observe porphyrins fluorescence (orange-red dots).

Row | Compound | IC50 (IL-2) [nM] | IC50 (IL-13) [nM] | IC50 (IL-8) [nM] | AVG - TSLP (TSLP; topical dose 4.0 μg/ear) [pg/6 mm biopsy] | TSLP % inhb (TSLP; topical dose 4.0 μg/ear) [%] | AVG - TSLP (TSLP; topical dose 40.0 μg/ear) [pg/6 mm biopsy] | TSLP % inhb (TSLP; topical dose 40.0 μg/ear) [%] | AVG - TSLP (TSLP; topical dose 400.0 μg/ear) [pg/6 mm biopsy] | TSLP % inhb (TSLP; topical dose 400.0 μg/ear) [%] | inhibition of PHA-induced cytokines (PHA-induced cytokines) | P. acnes-induced IL-8 production (IL-8) | Investigator Global Assesment (IGA) Scale ([1]; 2 week) | Investigator Global Assesment (IGA) Scale ([1]; 4 week) | Investigator Global Assesment (IGA) Scale ([1]; 8 week) | Investigator Global Assesment (IGA) Scale ([1]; Baseline)
1 | N#Cc1ccc(Oc2ccc3c(c2)COB3O)cc1 [AN2728, reference compound] | 40 | 3800 |  | 2495.1 | 51 | 2235.3 | 57 | 352.1 | 102 |  |  |  |  |  | 
2 | C/C(=C\CSCC(NC(=O)NCC(=O)O)C(=O)O)CCCC(C)CCCC(C)CCCC(C)C (stereo not shown) [A] |  |  | 120 |  |  |  |  |  |  |  |  |  |  |  | 
3 | C/C(=C\CSC[C@H](NC(=O)N(C)CC(=O)O)C(=O)O)CCCC(C)CCCC(C)CCCC(C)C (stereo partly drawn) [Compound C, (2R)-2-{[(carboxymethyl)(methyl)carbamoyl]amino}-3-{[(2E)-3,7,11,15-tetramethylhexadec-2-en-1-yl]sulfanyl}propanoic acid] | 900 | 8200 | 40 | 2753.6 | 15 | 1156.1 | 74 | 759.9 | 88 | did not show significant inhibition |  |  |  |  | 

The next lines start with results.

Row | IC50 (IL-2) [nM] | IC50 (IL-13) [nM] | IC50 (IL-8) [nM] | Compound | AVG - TSLP (TSLP; topical dose 4.0 μg/ear) [pg/6 mm biopsy] | TSLP % inhb (TSLP; topical dose 4.0 μg/ear) [%] | AVG - TSLP (TSLP; topical dose 40.0 μg/ear) [pg/6 mm biopsy] | TSLP % inhb (TSLP; topical dose 40.0 μg/ear) [%] | AVG - TSLP (TSLP; topical dose 400.0 μg/ear) [pg/6 mm biopsy] | TSLP % inhb (TSLP; topical dose 400.0 μg/ear) [%] | inhibition of PHA-induced cytokines (PHA-induced cytokines) | P. acnes-induced IL-8 production (IL-8) | Investigator Global Assesment (IGA) Scale ([1]; 2 week) | Investigator Global Assesment (IGA) Scale ([1]; 4 week) | Investigator Global Assesment (IGA) Scale ([1]; 8 week) | Investigator Global Assesment (IGA) Scale ([1]; Baseline)
4 | 4100 | 1500 | 3 | C/C(=C\CSC[C@H](NC(=O)N1CCC[C@H]1C(=O)O)C(=O)O)CCCC(C)CCCC(C)CCCC(C)C (stereo partly shown) [Compound E] |  |  |  |  |  |  |  | inhibit IL-8 production | 2 | 1 | 0 | 3
5 | 3300 | 20 | 68 | C/C(=C\CSCC(NC(=O)N(CC(=O)O)CC(=O)O)C(=O)O)CCCC(C)CCCC(C)CCCC(C)C (stereo not shown) [Compound G] |  |  |  |  |  |  |  | inhibit IL-8 production |  |  |  | 
6 | 100 | 100 |  | C/C(=C\CSC[C@H](NC(=O)COCC(=O)O)C(=O)O)CCCC(C)CCCC(C)CCCC(C)C (stereo partly shown) [Compound T] |  |  |  |  |  |  | did not show significant inhibition |  |  |  |  | 
